Assays:
[1] = topical, average of seven clinical studies; cited from earlier work
[2] = cited from earlier work
[3] = Fraction of drug unionized at a given pH; assay type: physicochemical

Compound | study participants who experienced relief of acute pain [1] | Log P (octanol: water) [2] | fraction unionized ([3]; at pH 3.5) | fraction unionized ([3]; at pH 6.0) | fraction in the unionized form ([3]; pH of 5 or less) | fraction in unionized form ([3]; pH of 6.5)
CC(C(=O)O)c1cccc(C(=O)c2ccccc2)c1 (stereo not shown) [Ketoprofen, 2-(3-benzoylphenyl)-propionic acid] | 73% | 2.68 | – | – | – | –
O=C(O)Cc1ccccc1Nc1c(Cl)cccc1Cl [diclofenac] | 52% | – | – | – | – | –
CC(C)Cc1ccc(C(C)C(=O)O)cc1 (stereo not shown) [ibuprofen] | – | – | 88.8% | 2.45% | > 20% | 0.79%

Source: US9012402B1, “Gel for topical delivery of NSAIDs to provide relief of musculoskeletal pain and methods for its preparation” (priority 2014, dated 2015)
